# How the values were obtained:
# Herpes Simplex virus [1] = test: Twice-daily coating of open Herpes Simplex lip sores with cyanoacrylate (case reports); format: in vivo, human
# Text: A person had open sores on their lower lip from which a clear liquid was exuding. The sores were diagnosed as resulting from the Herpes Simplex virus. Their initial office treatment consisted of swabbing the open sores with n-butyl-cyanoacrylate using a surgical swab until the sores and surrounding tissue were completely covered. They were given a supply of n-butyl-cyanoacrylate and surgical paddles for self-application and instructed on their use. They were cautioned not to close their lips or press them together after applying the n-butyl-cyanoacrylate for two to three minutes so that the coating over the sores would be completely dry.
# An individual had open sores on their lip from which a clear liquid was exuding. The sores were diagnosed as Herpes Simplex virus.
# An individual had open sores on their lip from which a clear liquid was exuding. The sores were diagnosed as resulting from the Herpes Simplex virus. They were instructed to coat the sores with 2 acetyl cyanoacrylate using a surgical swab until the sores and surrounding tissue were completely covered.
# An individual had open sores on their lip from which a clear liquid was exuding. The sores were diagnosed as resulting from the Herpes Simplex virus. They were instructed to coat the sores with octyl-cyanoacrylate using a surgical swab until the sores and surrounding tissue were completely covered.
# Herpes Simplex virus [2] = test: Twice-daily coating of a Herpes Simplex prodrome on the lip with cyanoacrylate (case report); format: in vivo, human; details: itching prodrome on lower lip, topical coating twice daily for three days
# Text: Before the open Herpes sore forms, an area where the sore will form becomes sensitive and itchy, and is known as a prodrome. The application of cyanoacrylate to the prodrome prevents the sore from forming. The cyanoacrylate can also be applied in the same manner as previously described to the prodrome.
# A person had itching on their lower lip. The itching was diagnosed as resulting from a prodrome of the Herpes Simplex virus. Their initial office treatment consisted of being told to swab the prodrome with n-butyl-cyanoacrylate using a surgical swab until the prodrome and surrounding tissue were completely covered. They were given a supply of n-butyl-cyanoacrylate and surgical paddles for self-application and instructed on their use.
# [3] = topical coating twice daily for three days
Molecule,state of the open sores (exudation of clear liquid) at end of treatment (Herpes Simplex virus [1]; [3]),state of the open sores (exudation of clear liquid) at end of treatment (Herpes Simplex virus [1]; topical coating twice daily for several days),outcome of prodrome (sore formation) (Herpes Simplex virus [2])
2 acetyl cyanoacrylate,no longer exuding,,
C=C(C#N)C(=O)OCC [ethyl cyanoacrylate],,no longer exudating,
C=C(C#N)C(=O)OCCCC [n-butyl-cyanoacrylate],no longer exudating,,prodrome disappeared and no sores formed or exuded
C=C(C#N)C(=O)OCCCCCCCC [octyl-cyanoacrylate],no longer exuding,,
